For data set [1], the system named is Cavia porcellus. Nature of the data set: Cardiotoxicity in guinea pig assessed as effect on RR interval time at 5 mg/kg, ip measured after 70 mins by ECG analysis (reference value: 208.4 to 238.4 milliseconds). The format is toxicity, organism-based. The note with it: in vivo.
Data set [2] can be described thus: Toxicity in ip dosed Sprague-Dawley rat assessed as sedation pretreated for 60 mins followed by PCP addition measured for 30 mins starting 15 min after rat reintroduction to auto-tracks. The format is organism-based. The note with it: in vivo.
Data set [3] relates to Cavia porcellus. The data set is described as follows: Cardiotoxicity in guinea pig assessed as effect on RR interval time at 5 mg/kg, ip measured after 30 mins by ECG analysis (reference value: 208.4 to 238.4 milliseconds). The format is toxicity, organism-based. The note with it: in vivo, 0.5 h.
Data set [4] concerns the target T1, 5-hydroxytryptamine receptor 6 (Homo sapiens, UniProt P50406). Nature of the data set: biochemical.
Description: Displacement of [3H]-LSD from human 5-HT6R expressed in HEK293 cell membranes after 1 hr at 37 degC by microbeta counting method
Data set [5] concerns Cavia porcellus. Nature of the data set: Cardiotoxicity in guinea pig assessed as effect on QT interval time at 5 mg/kg, ip measured after 60 mins by ECG analysis (reference value: 127.6 to 131.2 milliseconds). The class given is toxicity, organism-based. To be noted: in vivo, 1 h.
The subject of data set [6] is Cavia porcellus. The data set is described as follows: Cardiotoxicity in guinea pig assessed as effect on frequence of heart rate at 5 mg/kg, ip measured after 60 mins by ECG analysis (reference value: 262 to 296 /min). The class given is toxicity, organism-based. The note with it: in vivo, 1 h.
Data set [7] has as its system Cavia porcellus. Nature of the data set: Cardiotoxicity in guinea pig assessed as effect on QTc interval time at 5 mg/kg, ip measured after 80 mins by ECG analysis (reference value: […] to […] milliseconds). The class given is toxicity, organism-based. The note with it: in vivo.
Data set [8] has as its target T1, 5-hydroxytryptamine receptor 6. Nature of the data set: Antagonist activity at human 5-HT6R expressed in CHO-K1 cells assessed as inhibition of serotonin-induced cAMP accumulation at 10^-6 M after 30 mins by chemiluminescence-based assay. The format is functional, cell-based.
For data set [9] the target is unchanged. The data set is described as follows: Antagonist activity at human 5-HT6R expressed in CHO-K1 cells assessed as inhibition of serotonin-induced cAMP accumulation after 30 mins by chemiluminescence-based assay. The format is functional, cell-based. Background: Cyclic AMP is a second messenger, typically raised through Gs and lowered through Gi signalling.

Data set [10] is described as follows: Ratio of drug level in brain to plasma in Wistar rat at 3 mg/kg, ip measured after 15 mins by LC-MS/MS analysis. The format is ADME, organism-based. To be noted: read-out: BPR.
For data set [11], the system named is Cavia porcellus. Nature of the data set: Cardiotoxicity in guinea pig assessed as effect on QTc interval time at 5 mg/kg, ip measured after 70 mins by ECG analysis (reference value: […] to […] milliseconds). The class given is toxicity, organism-based. The note with it: in vivo.
Data set [12] deals with Cytochrome P450 1A2 (Homo sapiens, UniProt P05177). The data set is described as follows: Inhibition of human supersome CYP1A2 using caffeine as substrate assessed as caffeine 3-N-demethylation after 30 mins by HPLC-UV detection. The format is ADME.
Data set [13] deals with Cytochrome P450 2D6 (Homo sapiens, UniProt P10635). Nature of the data set: Inhibition of human supersome CYP2D6 using bufuralol as substrate assessed as bufuralol 1'-hydroxylation after 30 mins by HPLC-UV detection. The class given is ADME.
Data set [14] deals with D(2) dopamine receptor (Homo sapiens) (UniProt P14416). Nature of the data set: Antagonist activity at human D2LR expressed in CHO-K1 cells assessed as inhibition of dopamine-induced calcium flux at 10^-6 M by fluorimetric method. The format is functional, cell-based. On the technique in general: Calcium assays in cells follow changes in intracellular calcium, usually with a dye or a luminescent sensor.

Data set [15] relates to Cavia porcellus. The data set is described as follows: Cardiotoxicity in guinea pig assessed as effect on PR interval time at 5 mg/kg, ip measured after 70 mins by ECG analysis (reference value: 58.8 to 63.8 milliseconds). The class given is toxicity, organism-based. To be noted: in vivo.
Data set [16] concerns the target D(4) dopamine receptor (Homo sapiens) (UniProt P21917). Nature of the data set: Displacement of [3H]-methyl-spiperone from human dopamine D4 receptor expressed in CHO cells at 10^-6 M after 60 mins by scintillation counting method relative to control. The format is cell-based.
Data set [17] addresses T2, 5-hydroxytryptamine receptor 7 (Homo sapiens, UniProt P34969). Nature of the data set: Antagonist activity at human 5-HT7R expressed in human DLD1 cells assessed as inhibition of serotonin-induced cAMP accumulation at 10^-6 M by chemiluminescence-based assay. The class given is functional, cell-based.
For data set [18], the target named is T3, Alpha-1A adrenergic receptor (Homo sapiens) (UniProt P35348).
T3 sequence (whole entry): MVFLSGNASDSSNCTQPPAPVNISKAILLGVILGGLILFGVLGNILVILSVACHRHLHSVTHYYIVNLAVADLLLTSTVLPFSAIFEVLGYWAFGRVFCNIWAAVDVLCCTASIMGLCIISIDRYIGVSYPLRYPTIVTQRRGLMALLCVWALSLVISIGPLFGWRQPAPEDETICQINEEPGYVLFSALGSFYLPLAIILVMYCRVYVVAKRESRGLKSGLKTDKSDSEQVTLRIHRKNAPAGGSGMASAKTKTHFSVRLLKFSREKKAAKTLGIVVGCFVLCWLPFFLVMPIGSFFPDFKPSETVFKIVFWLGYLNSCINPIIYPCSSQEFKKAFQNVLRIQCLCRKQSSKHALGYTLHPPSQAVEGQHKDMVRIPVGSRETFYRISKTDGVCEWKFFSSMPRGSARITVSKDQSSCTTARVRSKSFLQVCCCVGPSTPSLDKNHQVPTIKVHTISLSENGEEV
The data set is described as follows: Displacement of [3H]-prazosin from human adrenergic alpha1A receptor expressed in CHO cells at 10^-6 M after 60 mins by scintillation counting method relative to control. The format is cell-based. In general terms: In a radioligand displacement assay an active substance lowers the binding of a labelled ligand.

The target in data set [19] is T2, 5-hydroxytryptamine receptor 7. The data set is described as follows: Displacement of [3H]LSD from recombinant human 5-HT7R after 120 mins by scintillation counting method.
Data set [20] addresses T4, 5-hydroxytryptamine receptor 1A (Homo sapiens) (UniProt P08908).
T4 sequence (whole entry): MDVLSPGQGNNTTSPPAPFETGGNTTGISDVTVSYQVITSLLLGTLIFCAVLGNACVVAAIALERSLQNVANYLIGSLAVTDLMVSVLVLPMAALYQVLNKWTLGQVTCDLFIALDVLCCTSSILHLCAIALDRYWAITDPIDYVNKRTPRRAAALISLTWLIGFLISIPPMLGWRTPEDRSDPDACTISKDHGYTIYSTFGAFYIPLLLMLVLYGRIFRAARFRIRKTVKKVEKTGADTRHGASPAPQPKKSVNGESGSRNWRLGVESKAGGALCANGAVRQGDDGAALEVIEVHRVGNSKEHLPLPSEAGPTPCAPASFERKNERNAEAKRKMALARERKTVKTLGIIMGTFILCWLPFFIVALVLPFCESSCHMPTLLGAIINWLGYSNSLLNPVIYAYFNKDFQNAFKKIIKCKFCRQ
Nature of the data set: Antagonist activity at human 5-HT1AR expressed in CHO-K1 cells assessed as inhibition of serotonin-induced cAMP accumulation at 10^-6 M by chemiluminescence-based assay. The class given is functional, cell-based.

Data set [21] has as its target 5-hydroxytryptamine receptor 2C (Homo sapiens) (UniProt P28335). Nature of the data set: Displacement of [3H]mesulergine from human 5-HT2C receptor expressed in CHO cells at 10^-6 M after 120 mins by scintillation counting analysis relative to control. The class given is cell-based.
Data set [22] has as its target D(1A) dopamine receptor (Homo sapiens) (UniProt P21728). The data set is described as follows: Displacement of [3H]-SCH 23390 from human dopamine D1 receptor expressed in CHO cells at 10^-6 M after 60 mins by scintillation counting method relative to control. The class given is cell-based.
The target in data set [23] is D(2) dopamine receptor (Homo sapiens) (UniProt P14416). Nature of the data set: Displacement of [3H]7-OH-DPAT from human recombinant dopamine D2S receptor expressed in CHO cells at 10^-6 M after 60 mins by scintillation counting analysis relative to control. The class given is cell-based.

pIC50, pKi: −log10 of the molar value. Some results are limits rather than exact numbers.

In general, pKi refers to the Ki on a negative log10 scale, so that one unit is a factor of ten. In general, inhibition refers to the change of the read-out against control, counted positive when it falls. Broadly, the Kb is the affinity of an antagonist, worked out from how it opposes an agonist. Broadly, the pIC50 is the IC50 on a negative log10 scale, so that one unit is a factor of ten.

T1 sequence (P50406 whole entry): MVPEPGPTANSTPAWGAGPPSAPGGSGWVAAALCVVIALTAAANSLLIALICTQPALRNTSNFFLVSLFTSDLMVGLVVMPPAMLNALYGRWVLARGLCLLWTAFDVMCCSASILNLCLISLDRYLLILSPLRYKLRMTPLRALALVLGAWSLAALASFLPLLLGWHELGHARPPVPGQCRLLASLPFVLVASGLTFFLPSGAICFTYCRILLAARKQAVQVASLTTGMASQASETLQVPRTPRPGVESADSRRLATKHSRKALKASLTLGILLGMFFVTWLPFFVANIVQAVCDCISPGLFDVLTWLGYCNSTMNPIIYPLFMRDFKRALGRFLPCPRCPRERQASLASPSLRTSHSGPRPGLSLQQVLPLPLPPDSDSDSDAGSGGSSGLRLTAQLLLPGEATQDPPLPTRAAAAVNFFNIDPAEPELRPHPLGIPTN
Chain of Cytochrome P450 2D6 (P10635 whole entry): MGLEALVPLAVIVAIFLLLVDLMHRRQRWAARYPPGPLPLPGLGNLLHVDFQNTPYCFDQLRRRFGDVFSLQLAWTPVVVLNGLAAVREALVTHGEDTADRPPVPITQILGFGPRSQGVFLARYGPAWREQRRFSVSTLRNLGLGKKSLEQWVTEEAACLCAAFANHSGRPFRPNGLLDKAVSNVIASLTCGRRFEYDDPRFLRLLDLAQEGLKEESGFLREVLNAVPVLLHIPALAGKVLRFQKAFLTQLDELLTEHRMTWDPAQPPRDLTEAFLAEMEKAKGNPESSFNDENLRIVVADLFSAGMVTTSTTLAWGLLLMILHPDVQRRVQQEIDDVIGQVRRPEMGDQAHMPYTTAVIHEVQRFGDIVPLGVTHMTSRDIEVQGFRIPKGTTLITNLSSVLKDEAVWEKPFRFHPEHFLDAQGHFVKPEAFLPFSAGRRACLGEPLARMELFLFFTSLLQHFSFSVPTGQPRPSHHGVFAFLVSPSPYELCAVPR
Chain of Cytochrome P450 1A2 (P05177 whole entry): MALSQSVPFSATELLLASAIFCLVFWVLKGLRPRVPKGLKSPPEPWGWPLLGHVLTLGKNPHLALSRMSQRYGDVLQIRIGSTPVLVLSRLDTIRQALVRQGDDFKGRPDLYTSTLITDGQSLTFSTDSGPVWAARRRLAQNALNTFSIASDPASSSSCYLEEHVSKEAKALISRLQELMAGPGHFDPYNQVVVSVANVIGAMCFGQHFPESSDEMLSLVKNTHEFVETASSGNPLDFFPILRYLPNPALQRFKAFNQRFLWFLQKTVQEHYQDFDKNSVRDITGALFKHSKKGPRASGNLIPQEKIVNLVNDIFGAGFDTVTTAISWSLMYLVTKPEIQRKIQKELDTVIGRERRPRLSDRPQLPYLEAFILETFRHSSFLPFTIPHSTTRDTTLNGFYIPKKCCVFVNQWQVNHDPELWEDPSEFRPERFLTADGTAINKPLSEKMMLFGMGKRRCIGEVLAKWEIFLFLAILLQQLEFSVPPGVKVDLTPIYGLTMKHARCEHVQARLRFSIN
T2 sequence (P34969 whole entry): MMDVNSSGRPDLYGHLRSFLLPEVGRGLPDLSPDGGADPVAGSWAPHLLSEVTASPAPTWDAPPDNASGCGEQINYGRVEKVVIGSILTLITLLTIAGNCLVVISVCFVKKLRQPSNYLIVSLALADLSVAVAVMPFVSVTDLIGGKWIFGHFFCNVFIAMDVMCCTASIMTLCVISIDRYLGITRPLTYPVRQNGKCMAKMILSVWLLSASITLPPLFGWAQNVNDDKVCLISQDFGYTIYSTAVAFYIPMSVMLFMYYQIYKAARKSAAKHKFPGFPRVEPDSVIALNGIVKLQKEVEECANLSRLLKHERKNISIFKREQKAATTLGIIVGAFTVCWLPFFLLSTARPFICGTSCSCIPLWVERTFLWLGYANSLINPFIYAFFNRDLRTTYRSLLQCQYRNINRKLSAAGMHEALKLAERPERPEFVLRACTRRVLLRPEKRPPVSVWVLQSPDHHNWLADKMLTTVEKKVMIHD
Chain of D(2) dopamine receptor (Homo sapiens) (P14416 whole entry): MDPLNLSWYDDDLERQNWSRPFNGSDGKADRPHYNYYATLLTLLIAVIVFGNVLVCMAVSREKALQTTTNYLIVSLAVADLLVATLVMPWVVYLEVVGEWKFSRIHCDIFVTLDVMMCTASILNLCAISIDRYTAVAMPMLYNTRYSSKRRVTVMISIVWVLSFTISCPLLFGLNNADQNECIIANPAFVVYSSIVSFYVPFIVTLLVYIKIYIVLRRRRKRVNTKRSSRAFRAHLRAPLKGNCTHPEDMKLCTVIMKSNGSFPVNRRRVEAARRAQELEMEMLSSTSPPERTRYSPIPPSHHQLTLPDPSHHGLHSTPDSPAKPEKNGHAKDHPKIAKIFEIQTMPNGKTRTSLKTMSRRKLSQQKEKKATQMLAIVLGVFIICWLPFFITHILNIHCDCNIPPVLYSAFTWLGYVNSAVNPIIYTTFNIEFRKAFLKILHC
Chain of D(4) dopamine receptor (Homo sapiens) (P21917 whole entry): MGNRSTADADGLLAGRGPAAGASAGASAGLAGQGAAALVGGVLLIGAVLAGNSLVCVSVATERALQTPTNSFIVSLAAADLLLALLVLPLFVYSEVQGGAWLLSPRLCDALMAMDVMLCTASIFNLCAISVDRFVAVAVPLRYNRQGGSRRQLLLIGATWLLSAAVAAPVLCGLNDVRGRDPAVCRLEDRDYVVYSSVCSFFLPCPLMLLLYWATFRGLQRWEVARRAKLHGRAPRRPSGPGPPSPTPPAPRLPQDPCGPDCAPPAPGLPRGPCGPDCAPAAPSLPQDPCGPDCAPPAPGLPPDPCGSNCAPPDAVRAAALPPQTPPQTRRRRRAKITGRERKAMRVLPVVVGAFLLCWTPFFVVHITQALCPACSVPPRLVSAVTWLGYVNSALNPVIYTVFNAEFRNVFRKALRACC
Chain of D(1A) dopamine receptor (Homo sapiens) (P21728 whole entry): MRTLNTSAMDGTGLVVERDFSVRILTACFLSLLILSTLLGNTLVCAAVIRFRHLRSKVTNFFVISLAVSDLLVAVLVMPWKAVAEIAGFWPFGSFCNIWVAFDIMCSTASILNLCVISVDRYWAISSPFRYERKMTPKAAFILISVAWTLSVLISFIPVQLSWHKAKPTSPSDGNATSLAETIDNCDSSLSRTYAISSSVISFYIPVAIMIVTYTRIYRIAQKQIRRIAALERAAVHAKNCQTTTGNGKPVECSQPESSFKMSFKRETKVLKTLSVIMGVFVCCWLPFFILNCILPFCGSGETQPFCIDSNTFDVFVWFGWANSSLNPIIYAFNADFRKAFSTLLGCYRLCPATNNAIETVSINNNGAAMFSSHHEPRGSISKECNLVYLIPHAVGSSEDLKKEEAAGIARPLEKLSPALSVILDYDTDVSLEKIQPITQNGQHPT
Chain of 5-hydroxytryptamine receptor 2C (Homo sapiens) (P28335 whole entry): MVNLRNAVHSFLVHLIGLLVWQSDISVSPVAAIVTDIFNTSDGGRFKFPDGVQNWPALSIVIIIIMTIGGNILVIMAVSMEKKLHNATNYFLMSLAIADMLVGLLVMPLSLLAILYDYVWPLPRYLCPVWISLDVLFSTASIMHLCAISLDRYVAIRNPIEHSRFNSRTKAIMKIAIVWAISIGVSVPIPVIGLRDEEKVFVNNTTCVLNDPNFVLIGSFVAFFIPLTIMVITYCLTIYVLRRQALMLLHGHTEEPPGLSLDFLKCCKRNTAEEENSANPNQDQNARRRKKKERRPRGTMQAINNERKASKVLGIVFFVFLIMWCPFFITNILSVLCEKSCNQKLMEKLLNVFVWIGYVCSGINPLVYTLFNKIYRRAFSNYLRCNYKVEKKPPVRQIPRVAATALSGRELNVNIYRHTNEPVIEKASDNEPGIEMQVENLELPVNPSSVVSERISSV

`O=S(=O)(c1cncc2ccccc12)N1CCC[C@H]1CCN1CCN(c2nsc3ccccc23)CC1`: the Time in data set [1] is reported as 211.4 ms; in [3], 212.6 ms; in data set [5], 125.8 ms; in data set [7], 273.4 ms; in [11], 274.6 ms; in [15], 60.8 ms. For the same molecule, the MTD at 0.5 h in [2] turned out to be 3 mg/kg. The same molecule gave a pKi in [4] of 6.50. Besides, the Activity in [6] was 288 min⁻¹. The inhibition in data set [8] was found to be 23%; in [14], 100%. Besides, in data set [9], the antagonist dissociation constant (Kb) stood at 974 nM. The Kp at 0.25 h in data set [10] is 0.59. The negative logarithm of the IC50 (pIC50) in data set [12] and in [13] was under 4.00 each time.

Turning to `O=S(=O)(c1cncc2ccccc12)N1CCC[C@H]1CCN1CCN(c2cccc3sccc23)CC1`, the Time is listed as 214.8 ms in data set [1]; 235.2 ms in data set [3]; 124.6 ms in data set [5]; 268 ms in [7]; 265.6 ms in data set [11]; 64.2 ms in data set [15]. For the same molecule, the inhibition in [16] turned out to be 10%; in data set [17] it was 94%; in data set [18] it was 94%; in [20] it was 32.5%; in data set [21], 80%; in data set [22] it was 10%. The inhibition in [23] worked out at 100%. Also, the MTD at 0.5 h in [2] is 3 mg/kg. Also, the pKi in data set [19] was 7.72. In addition, in [6], the Activity came to 276 min⁻¹. Further, the Kp at 0.25 h in data set [10] was 1.69. Besides, the pIC50 in data set [12] and in data set [13] was under 4.00 throughout.
